Laboratory results: patent US8822182B2, “Chimeric antigen-specific T cell-activating polypeptides” (Mayo Foundation for Medical Education and Research, priority 2001, dated 2014)

Assays:
C57BL6 mice = assay type: in vivo, mouse; conditions: 40 μg immunogen in IFA plus CpG adjuvant; spleen cells restimulated 7 days with peptide epitope; RMA-S targets, FIGS. 11A-11C
[1] = test system: TAP deficient RMA-S targets; assay type: cell-based, mouse; conditions: ConA-activated CTL, 10 μM overnight
[2] = test system: TAP-competent cells expressing H-2K^b (L-K^b); assay: Immunofluorescence and confocal microscopy of H-2K^b/OVA257 complexes, TAP-competent cells; assay type: cell-based, mouse; conditions: 25D1.16 staining
Experimental: (§1) T2/K^b or L-K^b cells were cultured overnight on poly-lysine treated glass coverslips. The culture medium was discarded, and the cells were gently washed with PBS. The cells were pre-incubated with serum-free AIM-V medium at 37° C. for 30 minutes and then incubated with peptide/TA solutions at the indicated concentrations for 12 hour at 37° C. After peptide loading, the cells were washed and fixed with 2% formaldehyde for 20 minutes at room temperature. For indirect immunofluorescence, fixed cell monolayers were permeabilized with 0.2% Triton X100 in PBS and incubated with PBS containing 5% goat serum to block non-specific protein binding sites. The cells were double-labeled with mouse monoclonal antibody 25D1.16 specific to OVA257/H-2K^b complex and rabbit polyclonal antibody TGN38 (TGN marker) or rabbit anti-calreticulin (ER marker), followed by 1 hour staining with FITC anti-mIgG and TR anti-rIgG as secondary antibodies. After washing, the coverslips were mounted for observation on glass slides using the Prolong Antifade Kit. The stained cells were examined and photographed with a Leica TCS-SL confocal laser-scanning microscope (Bensheim, Germany).
Utilizing the monoclonal antibody 25D1.16 that specifically reacts with H-2K^b/OVA257 complexes and confocal microscopy, the formation and presence of this CTL epitope in permeabilized TAP-competent and TAP-deficient cells expressing H-2K^b was evaluated. […] These cells were also stained with an antibody specific for calreticulin which is localized within the ER.

[3] = test system: TAP-deficient T2/K^b cells; assay: Flow cytometry of surface H-2K^b/OVA257 complexes (25D1.16) with protease inhibitors, T2/K^b cells; assay type: cell-based, human; conditions: decRVKR-CMK 60 μM, antigen 10 μM overnight, FIGS. 8D-8F
Experimental: (§2) The effects of protease inhibitors on antigen processing and presentation were evaluated by analysis of 25D1.16 staining on different antigen-pulsed EL-4 or T2/K^b cells using flow cytometric analysis. In brief, EL-4 or T2/K^b cells were washed twice with serum-free AIM-V medium (Life Technologies, Rockville, Md.), pre-treated with protease inhibitors (10 μM lactacycstin, 100 μM pepstatin or 60 μM decRVKR-CMK) for 30 minutes and then pulsed with equimolar concentrations of different (as indicated) peptides at 37° C. overnight with the continuous presence of the corresponding protease inhibitors. The serum-free AIM-V medium was used in order to exclude the potential involvement of serum proteases during the peptide-pulsing process. After washing the cells twice with FACS buffer (PBS (phosphate buffered saline) supplemented with 2% FBS and 0.2% sodium azide), peptide-loaded APC were stained with 25D1.16 antibody followed by FITC anti-mIgG for flow analysis. Untreated EL-4 and T2/K^b cells were pulsed with peptides and stained as controls.
The data described above indicate that TA can be processed in various cellular compartments to produce small peptide epitopes that subsequently associate with MHC class I molecules and the resulting peptide-MHC class I complexes are then transported to the cell surface. Antigen processing could take place: (1) in the cytoplasm, via proteasomal degradation followed by TAP transport; (2) within the ER, where peptide trimming via an aminopeptidase could occur; (3) in the trans-Golgi, where processing of antigens through proteases such as furin can occur; and/or (4) in early endocytic compartments, where peptides that could either bind to recycling MHC class I molecules or leak into other compartments of the MHC class I pathway can be generated. Utilizing antibody 25D1.16, we studied the effects of various inhibitors of antigen processing in the formation of H-2K^b/OVA257 surface complexes by peptides OVA257-HIVtat and HIVtat-OVA257.

[4] = test system: Murine dendritic cells (DC); assay: Persistence in dendritic cells: IFN-γ ELISA of OT-1 CTL cultured with pulsed DC; assay type: cell-based, mouse; conditions: DC pulsed 10 μM 2 hours, washed, further 48 hours, CTL:DC 10:1 for 24 hours, FIG. 14
Experimental: Murine dendritic cells (DC) were prepared by culturing C57BL6 mouse (H-2^b) bone marrow […] in the presence of granulocyte macrophage colony stimulating factor (GM-CSF) and interleukin-4 (IL-4) by a method essentially the same as that described by Son et al. [(2002) J. Immunol. Meth. 262:145-157] except that non-adherent cells are removed from the cultures and discarded on day 2 of culture and no density gradient centrifugation step was used. Cells not adhering to the plastic tissue culture vessel at day 6 of culture were harvested and used as DC.
DC were pulsed with either the TA HIVtat-OVA257 (see Table 2) or the peptide epitope OVA257, each at a concentration of 10 μM, for 2 hours at 37° C. The cells were then washed free of the TA or peptide epitope and incubated for a further 48 hours. They were then cultured with cells of the OT-1 CTL clone (specific for H-2K^b/OVA257) at a CTL to DC ratio of 10:1 for 24 hours. Supernatants were then removed from the cultures and the relative amounts of IFN-γ in various dilutions of each supernatant were measured by ELISA (FIG. 14). […] These findings indicate that a peptide epitope persists in DC for a longer period of time when taken up by DC in the form of a TA than when taken up by DC in the form of the peptide epitope per se.

RMA-S cells = assay: Flow cytometry of surface H-2K^b/OVA257 complexes on RMA-S cells with or without furin inhibitor; assay type: cell-based; conditions: 18 hours, 25D1.16 antibody, FIG. 13
Experimental: Aliquots of RMA-S cells were cultured without or with the furin inhibitor decRVKR-CMK (60 μM) at 37° C. After one hour of culture, 4 multiple epitope-containing TA (TA3-A, TA3-B, TA3-C, and TA3-D) or OVA257 were each added to separate cultures, which were then incubated for a further 18 hours. The cells were then harvested and the relative amounts of H-2K^b/OVA257 complexes expressed on the surfaces of the cells were assessed by fluorescence flow cytometry using the 25D1.16 antibody (FIG. 13). […] These findings underscore the importance of furin in processing of antigens to generate peptide epitopes that bind to MHC class I molecules and are then recognized by appropriate peptide epitope-specific CTL.

TAP-competent EL-4 cells = assay: Flow cytometry of surface H-2K^b/OVA257 complexes (25D1.16) with protease inhibitors, EL-4 cells; assay type: cell-based, mouse; conditions: decRVKR-CMK 60 μM, antigen 10 μM overnight, FIGS. 8A-8C
Experimental: as §2

[5] = test system: TAP-deficient cells (T2/K^b); assay: Immunofluorescence and confocal microscopy of H-2K^b/OVA257 complexes, T2/K^b cells; assay type: cell-based, human
Experimental: as §1
An antibody specific for trans-Golgi network (TGN38) was used to test whether H-2K^b/OVA257 complexes could also be detected in the trans-Golgi network of cells incubated with TA peptides. […] In these cells, antibody TGN38 stained brightly a structure corresponding to the trans-Golgi. […] These observations reinforce the findings that TA peptides need to penetrate cells in order to create MHC class I/peptide complexes. In addition, these complexes are observed in both the ER and trans-Golgi, even in TAP-deficient cells.

Sequence: IKAVYNFATCGRVKRSIYRYYGLRVKRSIINFEKLAAARKKRRQRRR [TA3-A]
- induction of CTL responses by in vivo vaccination (C57BL6 mice): at least as effective as the peptide mixture
- sensitization of targets for killing by OVA257-specific CTL ([1]; FIG. 9 left panel): could effectively kill targets sensitized
- sensitization of targets for killing by 2C-specific CTL ([1]; FIG. 9 middle panel): could effectively kill targets sensitized

Sequence: SIINFEKL [OVA257, reference compound]
- presence of H-2K^b/OVA257 complexes in permeabilized cells [2]: abundant
- effect of furin inhibitor decRVKR-CMK on expression of surface H-2K^b/OVA257 complexes (decrease) [3]: no effect was observed
- IFN-γ produced by OT-1 CTL cultured with pulsed DC [4]: insignificant levels of IFN-γ
- cell-surface H-2K^b/OVA257 complexes after exposure of cells (RMA-S cells): detectable levels
- effect of furin inhibitor decRVKR-CMK on expression of surface H-2K^b/OVA257 complexes (decrease) (TAP-competent EL-4 cells): no effect was observed
- location of H-2K^b/OVA257 complexes on the cell-surface ([5]; 25D1.16 staining): most of the H-2K^b/OVA257 complexes were on the cell-surface
- localization of H-2K^b/OVA257 complexes to the trans-Golgi ([5]; 25D1.16 superimposed with TGN38 staining): no localization to the trans-Golgi
